Results: patent US20250255867A1 (Kadmon Corporation, LLC, priority 2022, published 2025)

With `CC(C)NC(=O)COc1cccc(-c2nc(Nc3ccc4[nH]ncc4c3)c3ccccc3n2)c1` [Belumosudil, 2-{3-[4-(1H-indazol-5-ylamino)-2-quinazolinyl]phenoxy}-N-(propan-2-yl) acetamide] the “Weight decreased: Affected/At Risk (%)” value (Cohort 1 200 mg QD) was “(5.88%)”, the “Weight increased: # Events” value (Cohort 1 200 mg QD) was 9 and the “Weight increased: Affected/At Risk” value (Cohort 1 200 mg QD) was 3/17. For the same compound, the “Weight increased: Affected/At Risk (%)” value (Cohort 1 200 mg QD) was “(17.65%)”, the “White blood cell count decreased: # Events” value (Cohort 1 200 mg QD) was 1 and the “White blood cell count decreased: Affected/At Risk” value (Cohort 1 200 mg QD) was 1/17. For the same compound, the “White blood cell count decreased: Affected/At Risk (%)” value (Cohort 1 200 mg QD) was “(5.88%)”, the “ALT/AST increased all grade, No.” value (Cohort 1 200 mg QD n=17) was 11 and the “ALT/AST increased grade ≥3, No.” value (Cohort 1 200 mg QD n=17) was 2. For the same compound, the “Anemia grade ≥3, No.” value (Cohort 1 200 mg QD n=17) was 2, the “Any AE, No. of patients” value (Cohort 1 200 mg QD n=17) was 17 and the “Cough all grade, No.” value (Cohort 1 200 mg QD n=17) was 1. For the same compound, the “Death, No.” value (Cohort 1 200 mg QD n=17) was 0, the “Diarrhea all grade, No.” value (Cohort 1 200 mg QD n=17) was 6 and the “Drug-related AE, No.” value (Cohort 1 200 mg QD n=17) was 8. For the same compound, the “Drug-related SAE, No.” value (Cohort 1 200 mg QD n=17) was 0, the “Dyspnea all grade, No.” value (Cohort 1 200 mg QD n=17) was 3 and the “Dyspnea grade ≥3, No.” value (Cohort 1 200 mg QD n=17) was 1. The “Fatigue all grade, No.” value (Cohort 1 200 mg QD n=17) was 6, the “Grade ≥3 AE, No.” value (Cohort 1 200 mg QD n=17) was 9 and the “Headache all grade, No.” value (Cohort 1 200 mg QD n=17) was 4. The “Hyperglycemia grade ≥3, No.” value (Cohort 1 200 mg QD n=17) was 2, the “Hypertension all grade, No.” value (Cohort 1 200 mg QD n=17) was 5 and the “Hypoxia grade ≥3, No.” value (Cohort 1 200 mg QD n=17) was 1. For the same compound, the “Lung infection or pneumonia grade ≥3, No.” value (Cohort 1 200 mg QD n=17) was 1, the “Nausea all grade, No.” value (Cohort 1 200 mg QD n=17) was 6 and the “Peripheral edema all grade, No.” value (Cohort 1 200 mg QD n=17) was 3. The “SAE, No.” value (Cohort 1 200 mg QD n=17) was 5, the “URI all grade, No.” value (Cohort 1 200 mg QD n=17) was 9 and the “Patients with relative dose intensity >95%” value (Cohort 2) was 63%. For the same compound, the “Abdominal distension: # Events” value (Cohort 2 200 mg BID) was 0, the “Abdominal distension: Affected/At Risk” value (Cohort 2 200 mg BID) was 0/16 and the “Abdominal distension: Affected/At Risk (%)” value (Cohort 2 200 mg BID) was “(0%)”. The “Abdominal pain upper: # Events” value (Cohort 2 200 mg BID) was 1, the “Abdominal pain upper: Affected/At Risk” value (Cohort 2 200 mg BID) was 1/16 and the “Abdominal pain upper: Affected/At Risk (%)” value (Cohort 2 200 mg BID) was “(6.25%)”. For the same compound, the “Abdominal pain: # Events” value (Cohort 2 200 mg BID) was 4, the “Abdominal pain: Affected/At Risk” value (Cohort 2 200 mg BID) was 2/16 and the “Abdominal pain: Affected/At Risk (%)” value (Cohort 2 200 mg BID) was “(12.5%)”. For the same compound, the “Actinic keratosis: # Events” value (Cohort 2 200 mg BID) was 1, the “Actinic keratosis: Affected/At Risk” value (Cohort 2 200 mg BID) was 1/16 and the “Actinic keratosis: Affected/At Risk (%)” value (Cohort 2 200 mg BID) was “(6.25%)”. The “Acute kidney injury: # Events” value (Cohort 2 200 mg BID) was 2, the “Acute kidney injury: Affected/At Risk” value (Cohort 2 200 mg BID) was 2/16 and the “Acute kidney injury: Affected/At Risk (%)” value (Cohort 2 200 mg BID) was “(12.5%)”. The “Acute respiratory distress syndrome: # Events” value (Cohort 2 200 mg BID) was 0, the “Acute respiratory distress syndrome: Affected/At Risk” value (Cohort 2 200 mg BID) was 0/16 and the “Acute respiratory distress syndrome: Affected/At Risk (%)” value (Cohort 2 200 mg BID) was “(0%)”. The “Adrenal insufficiency: # Events” value (Cohort 2 200 mg BID) was 0, the “Adrenal insufficiency: Affected/At Risk” value (Cohort 2 200 mg BID) was 0/16 and the “Adrenal insufficiency: Affected/At Risk (%)” value (Cohort 2 200 mg BID) was “(0%)”. The “Alanine aminotransferase increased: # Events” value (Cohort 2 200 mg BID) was 4, the “Alanine aminotransferase increased: Affected/At Risk” value (Cohort 2 200 mg BID) was 3/16 and the “Alanine aminotransferase increased: Affected/At Risk (%)” value (Cohort 2 200 mg BID) was “(18.75%)”. The “Anaemia: # Events” value (Cohort 2 200 mg BID) was 8, the “Anaemia: Affected/At Risk” value (Cohort 2 200 mg BID) was 4/16 and the “Anaemia: Affected/At Risk (%)” value (Cohort 2 200 mg BID) was “(25%)”. The “Anal incontinence: # Events” value (Cohort 2 200 mg BID) was 0, the “Anal incontinence: Affected/At Risk” value (Cohort 2 200 mg BID) was 0/16 and the “Anal incontinence: Affected/At Risk (%)” value (Cohort 2 200 mg BID) was “(0%)”. The “Anxiety: # Events” value (Cohort 2 200 mg BID) was 3, the “Anxiety: Affected/At Risk” value (Cohort 2 200 mg BID) was 2/16 and the “Anxiety: Affected/At Risk (%)” value (Cohort 2 200 mg BID) was “(12.5%)”. For the same compound, the “Arthralgia: # Events” value (Cohort 2 200 mg BID) was 1, the “Arthralgia: Affected/At Risk” value (Cohort 2 200 mg BID) was 1/16 and the “Arthralgia: Affected/At Risk (%)” value (Cohort 2 200 mg BID) was “(6.25%)”. For the same compound, the “Aspartate aminotransferase increased: # Events” value (Cohort 2 200 mg BID) was 2, the “Aspartate aminotransferase increased: Affected/At Risk” value (Cohort 2 200 mg BID) was 2/16 and the “Aspartate aminotransferase increased: Affected/At Risk (%)” value (Cohort 2 200 mg BID) was “(12.5%)”. The “Asthenia: # Events” value (Cohort 2 200 mg BID) was 1, the “Asthenia: Affected/At Risk” value (Cohort 2 200 mg BID) was 1/16 and the “Asthenia: Affected/At Risk (%)” value (Cohort 2 200 mg BID) was “(6.25%)”. The “Atelectasis: # Events” value (Cohort 2 200 mg BID) was 0, the “Atelectasis: Affected/At Risk” value (Cohort 2 200 mg BID) was 0/16 and the “Atelectasis: Affected/At Risk (%)” value (Cohort 2 200 mg BID) was “(0%)”. The “Back pain: # Events” value (Cohort 2 200 mg BID) was 2, the “Back pain: Affected/At Risk” value (Cohort 2 200 mg BID) was 2/16 and the “Back pain: Affected/At Risk (%)” value (Cohort 2 200 mg BID) was “(12.5%)”. The “Balance disorder: # Events” value (Cohort 2 200 mg BID) was 1, the “Balance disorder: Affected/At Risk” value (Cohort 2 200 mg BID) was 1/16 and the “Balance disorder: Affected/At Risk (%)” value (Cohort 2 200 mg BID) was “(6.25%)”. For the same compound, the “Basal cell carcinoma: # Events” value (Cohort 2 200 mg BID) was 1, the “Basal cell carcinoma: Affected/At Risk” value (Cohort 2 200 mg BID) was 1/16 and the “Basal cell carcinoma: Affected/At Risk (%)” value (Cohort 2 200 mg BID) was “(6.25%)”. The “Benign prostatic hyperplasia: # Events” value (Cohort 2 200 mg BID) was 0, the “Benign prostatic hyperplasia: Affected/At Risk” value (Cohort 2 200 mg BID) was 0/16 and the “Benign prostatic hyperplasia: Affected/At Risk (%)” value (Cohort 2 200 mg BID) was “(0%)”. The “Blepharitis: # Events” value (Cohort 2 200 mg BID) was 0, the “Blepharitis: Affected/At Risk” value (Cohort 2 200 mg BID) was 0/16 and the “Blepharitis: Affected/At Risk (%)” value (Cohort 2 200 mg BID) was “(0%)”. For the same compound, the “Blister: # Events” value (Cohort 2 200 mg BID) was 3, the “Blister: Affected/At Risk” value (Cohort 2 200 mg BID) was 2/16 and the “Blister: Affected/At Risk (%)” value (Cohort 2 200 mg BID) was “(12.5%)”. For the same compound, the “Blood alkaline phosphatase increased: # Events” value (Cohort 2 200 mg BID) was 1, the “Blood alkaline phosphatase increased: Affected/At Risk” value (Cohort 2 200 mg BID) was 1/16 and the “Blood alkaline phosphatase increased: Affected/At Risk (%)” value (Cohort 2 200 mg BID) was “(6.25%)”. For the same compound, the “Blood chloride decreased: # Events” value (Cohort 2 200 mg BID) was 1, the “Blood chloride decreased: Affected/At Risk” value (Cohort 2 200 mg BID) was 1/16 and the “Blood chloride decreased: Affected/At Risk (%)” value (Cohort 2 200 mg BID) was “(6.25%)”. For the same compound, the “Blood cholesterol increased: # Events” value (Cohort 2 200 mg BID) was 0, the “Blood cholesterol increased: Affected/At Risk” value (Cohort 2 200 mg BID) was 0/16 and the “Blood cholesterol increased: Affected/At Risk (%)” value (Cohort 2 200 mg BID) was “(0%)”. The “Blood creatine increased: # Events” value (Cohort 2 200 mg BID) was 1, the “Blood creatine increased: Affected/At Risk” value (Cohort 2 200 mg BID) was 1/16 and the “Blood creatine increased: Affected/At Risk (%)” value (Cohort 2 200 mg BID) was “(6.25%)”. For the same compound, the “Blood creatine phosphokinase increased: # Events” value (Cohort 2 200 mg BID) was 0, the “Blood creatine phosphokinase increased: Affected/At Risk” value (Cohort 2 200 mg BID) was 0/16 and the “Blood creatine phosphokinase increased: Affected/At Risk (%)” value (Cohort 2 200 mg BID) was “(0%)”. The “Blood creatinine increased: # Events” value (Cohort 2 200 mg BID) was 1, the “Blood creatinine increased: Affected/At Risk” value (Cohort 2 200 mg BID) was 1/16 and the “Blood creatinine increased: Affected/At Risk (%)” value (Cohort 2 200 mg BID) was “(6.25%)”. The “Blood loss anaemia: # Events” value (Cohort 2 200 mg BID) was 0, the “Blood loss anaemia: Affected/At Risk” value (Cohort 2 200 mg BID) was 0/16 and the “Blood loss anaemia: Affected/At Risk (%)” value (Cohort 2 200 mg BID) was “(0%)”. The “Bronchial secretion retention: # Events” value (Cohort 2 200 mg BID) was 1, the “Bronchial secretion retention: Affected/At Risk” value (Cohort 2 200 mg BID) was 1/16 and the “Bronchial secretion retention: Affected/At Risk (%)” value (Cohort 2 200 mg BID) was “(6.25%)”. For the same compound, the “Bronchitis: # Events” value (Cohort 2 200 mg BID) was 0, the “Bronchitis: Affected/At Risk” value (Cohort 2 200 mg BID) was 0/16 and the “Bronchitis: Affected/At Risk (%)” value (Cohort 2 200 mg BID) was “(0%)”. For the same compound, the “Bronchoscopy: # Events” value (Cohort 2 200 mg BID) was 0, the “Bronchoscopy: Affected/At Risk” value (Cohort 2 200 mg BID) was 0/16 and the “Bronchoscopy: Affected/At Risk (%)” value (Cohort 2 200 mg BID) was “(0%)”. For the same compound, the “Catheter site haemorrhage: # Events” value (Cohort 2 200 mg BID) was 0, the “Catheter site haemorrhage: Affected/At Risk” value (Cohort 2 200 mg BID) was 0/16 and the “Catheter site haemorrhage: Affected/At Risk (%)” value (Cohort 2 200 mg BID) was “(0%)”. For the same compound, the “Chills: # Events” value (Cohort 2 200 mg BID) was 1, the “Chills: Affected/At Risk” value (Cohort 2 200 mg BID) was 1/16 and the “Chills: Affected/At Risk (%)” value (Cohort 2 200 mg BID) was “(6.25%)”. The “Chronic kidney disease: # Events” value (Cohort 2 200 mg BID) was 0, the “Chronic kidney disease: Affected/At Risk” value (Cohort 2 200 mg BID) was 0/16 and the “Chronic kidney disease: Affected/At Risk (%)” value (Cohort 2 200 mg BID) was “(0%)”. The “Conjunctival haemorrhage: # Events” value (Cohort 2 200 mg BID) was 1, the “Conjunctival haemorrhage: Affected/At Risk” value (Cohort 2 200 mg BID) was 1/16 and the “Conjunctival haemorrhage: Affected/At Risk (%)” value (Cohort 2 200 mg BID) was “(6.25%)”. For the same compound, the “Conjunctivitis: # Events” value (Cohort 2 200 mg BID) was 1 and the “Conjunctivitis: Affected/At Risk” value (Cohort 2 200 mg BID) was 1/16.
